Reference: the supplement of paper PMC3937590

Columns and labels:
Assay in all cases: -log10 GI50 (growth inhibition 50%) (-log10(M)); higher = more potent growth inhibition
21MT1 = test system: 21MT1
Outline: (§1)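 A value carrying a < qualifier equals the top dose tested. Each compound was tested in triplicate on breast cancer cell lines for 72 hours at nine doses in 1:5 serial dilution, using a luminescence read-out against a time-zero plate. Nonlinear least squares fitting of a Gompertz curve gave GI50, the molar concentration causing the set level of growth inhibition, which is reported as its negative logarithm. The logarithm is base 10.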

21NT = test system: 21NT
Outline: as §1

BT20 = test system: BT20
Outline: as §1

CAMA1 = test system: CAMA1
Outline: as §1

HCC1187 = test system: HCC1187
Outline: as §1

HCC1395 = test system: HCC1395
Outline: as §1

HCC1569 = test system: HCC1569
Outline: as §1

HS578T = test system: HS578T
Outline: as §1

MCF10F = test system: MCF10F
Outline: as §1

MDAMB134VI = test system: MDAMB134VI
Outline: as §1

SUM185PE = test system: SUM185PE
Outline: as §1

HCC202 = test system: HCC202
Outline: as §1

ZR7530 = test system: ZR7530
Outline: as §1

HBL100 = test system: HBL100
Outline: as §1

MDAMB436 = test system: MDAMB436
Outline: as §1

MDAMB468 = test system: MDAMB468
Outline: as §1

S1 = test system: S1
Outline: as §1

SUM102PT = test system: SUM102PT
Outline: as §1

T4 = test system: T4
Outline: as §1

UACC893 = test system: UACC893
Outline: as §1

-log10 GI50 (BT20)	-log10 GI50 (HCC1187)	-log10 GI50 (HCC1395)	-log10 GI50 (HCC1569)	-log10 GI50 (MDAMB134VI)	-log10 GI50 (HCC202)	-log10 GI50 (MDAMB436)	-log10 GI50 (MDAMB468)	Structure (SMILES)	-log10 GI50 (21MT1)	-log10 GI50 (21NT)	-log10 GI50 (CAMA1)	-log10 GI50 (HS578T)	-log10 GI50 (MCF10F)	-log10 GI50 (SUM185PE)	-log10 GI50 (ZR7530)	-log10 GI50 (HBL100)	-log10 GI50 (S1)	-log10 GI50 (SUM102PT)	-log10 GI50 (T4)	-log10 GI50 (UACC893)
5.9	7.1	5.96	6.07	5.3	–	–	–	CC(=O)NCC(=O)N1[C@@H]2CC[C@H]1c1ccc(Nc3ncc(C(F)(F)F)c(NC4CCC4)n3)cc12	5.78	5.54	5.44	6.05	6.28	6.63	–	–	–	–	–	–
4.76	5.48	< 4.18	4.27	4.33	–	–	–	CCC[C@H](N[C@H]1CCc2cc(F)cc(F)c2C1)C(=O)Nc1cn(C(C)(C)CNCC(C)(C)C)cn1	4.38	< 4.18	< 4.18	4.51	< 4.18	4.84	–	–	–	–	–	–
5.44	8.01	7.02	6.78	6.8	–	–	–	COc1ccc(-c2cc3c(C)nc(N)nc3n([C@H]3CC[C@H](OCCO)CC3)c2=O)cn1	6.54	5.84	6.74	5.26	6.8	6.77	–	–	–	–	–	–
–	7.3	6.6	5.59	5.95	6.61	6.29	6.13	COc1cccc2c1C(=O)c1c(O)c3c(c(O)c1C2=O)C[C@@](O)(C(=O)CO)C[C@@H]3O[C@H]1C[C@H](N)[C@H](O)[C@H](C)O1 [Doxorubicin]	–	–	6.58	6.31	6.64	6.51	6.96	7.37	6.09	6.61	6.9	6.14
6.19	5.4	6.33	5.31	–	6.68	–	–	COC(=O)Nc1nc2cc(C(=O)c3ccccc3)ccc2[nH]1 [Mebendazole]	4.74	6.08	6.33	6.46	5.45	6.3	6.35	–	–	–	–	–
5.16	4.85	< 4.48	< 4.48	5.06	5.34	–	–	Cc1c(O)cccc1C(=O)N[C@@H](CSc1ccccc1)[C@H](O)CN1C[C@H]2CCCC[C@H]2C[C@H]1C(=O)NC(C)(C)C [Nelfinavir]	4.87	4.57	5.37	5.07	4.99	5.24	5.74	–	–	–	–	–

Further lines, the compound ahead of its results:

Structure (SMILES)	-log10 GI50 (BT20)	-log10 GI50 (HCC1187)	-log10 GI50 (HCC1395)	-log10 GI50 (HCC1569)	-log10 GI50 (MDAMB134VI)	-log10 GI50 (HCC202)	-log10 GI50 (MDAMB436)	-log10 GI50 (MDAMB468)	-log10 GI50 (21MT1)	-log10 GI50 (21NT)	-log10 GI50 (CAMA1)	-log10 GI50 (HS578T)	-log10 GI50 (MCF10F)	-log10 GI50 (SUM185PE)	-log10 GI50 (ZR7530)	-log10 GI50 (HBL100)	-log10 GI50 (S1)	-log10 GI50 (SUM102PT)	-log10 GI50 (T4)	-log10 GI50 (UACC893)
C[C@@H](Oc1cc(-c2cnn(C3CCNCC3)c2)cnc1N)c1c(Cl)ccc(F)c1Cl	5.42	7.24	5.37	5.68	5.57	–	–	–	5.23	5.18	5.23	5.85	5.61	5.33	–	–	–	–	–	–
Cn1ncc(Cl)c1-c1cc(C(=O)N[C@H](CN)Cc2ccc(F)c(F)c2)oc1Cl	5.25	8.02	–	6.55	5.2	–	–	–	5.35	5.35	7.02	5.58	5.45	6.28	–	–	–	–	–	–
CCN(CC)C(=S)SSC(=S)N(CC)CC [Disulfiram]	7.3	6.49	< 4.18	< 4.18	5.88	4.84	–	–	< 4.18	4.72	4.85	5.44	< 4.18	< 4.18	7.05	–	–	–	–	–
COC1=C2C[C@@H](C)C[C@H](OC)[C@H](O)[C@@H](C)/C=C(\C)[C@H](OC(N)=O)[C@@H](OC)/C=C\C=C(/C)C(=O)NC(=CC1=O)C2=O [Geldanamycin]	–	7.8	7.42	7.47	7.8	8.4	7.15	7.74	–	–	7.47	7.28	8.14	7.71	8.15	7.6	8.82	8.48	8.22	8.14
